One data set concerns MOLT-4 ALL cells. Briefly: DIMSCAN cytotoxicity assay, MOLT-4. The data set is classed as cell-based, human. As to conditions: MOLT-4, sphinganine 1 μM, GT-11 0.5 μM, 48 hours. From the text:
Cell culture. The pre-T acute lymphoblastic leukemia cell lines MOLT-4 and CCRF-CEM, small cell lung cancer cell line NCI-H146, non-small cell lung cancer cell line NCI-H1792, colon cancer cell lines LoVo and HT-29, and breast cancer cell line MCF-7, were purchased from American Type Culture Collection, Manassas, Va., and grown at 20%/5% and 5%/5%, respectively. COG-LL-317 and COG-LL-332 pre-T acute lymphoblastic leukemia cell lines were obtained from the TTUHSC Cancer Center Cell Repository and grown at 5%/5%. Cell line identities were verified by short tandem repeat analysis and mycoplasma testing was performed. Cell lines were maintained in RPMI-1640 medium supplemented with 10% fetal bovine serum (FBS, Invitrogen) in humidified, 37° C. incubators. For all experiments, ALL cell lines were seeded at […] in RPMI-1640 medium supplemented with 15% fetal bovine serum. Solid tumor cell lines were plated at 5×cells/mL in RPMI-1640 medium supplemented with 10% fetal bovine serum.
Cytotoxicity Assay. Cytoxicity is determined using the DIMSCAN assay system (R. Proffitt et al., Cytometry 24, 204-213 (1996); T. Frgala et al., Proc. AACR, 36, 303 (1995). The system employs digital imaging microscopy to quantify viable cells, which selectively accumulate fluorescein diacetate to become brightly fluorescent. The system is capable of measuring cytotoxicity over a 4-5 log dynamic range by quenching the residual fluorescence of dead and dying cells with eosin Y and quantifying the total fluorescence of viable cells using digital thresholding. Measured fluorescence is directly proportionate to the number of viable cells. A comparison of the total fluorescence of a drug-treated cell population to the fluorescence of a similar number of untreated cells yields a survival fraction. […]
The addition of C22:0-fatty acid, but not C18:0 or C22:1 fatty acids, increased cytotoxicity (FIGS. 7A-7F). […] Cytotoxicity was measured using DIMSCAN, and data was normalized to control and plotted as survival fraction (y-axis). […]

For data set [1], the system named is intracellular sphingolipids, CCRF-CEM cells. The data set is described as follows: LC/MS/MS analysis of intracellular sphingolipids, CCRF-CEM. The data set is classed as cell-based, human. The following applies: for increase in corresponding dihydroceramide over sphinganine plus GT-11 alone: fatty acid in addition to sphinganine plus GT-11, six hours, P<0.05. As to the method:
LC/MS/MS analysis of intracellular sphingolipids. Sphingolipids were separated using an Agilent 1200 HPLC (LC) and determined by ESI/MS/MS performed on a AB SCIEX 4000 QTRAP Hybrid Triple Quadrupole/Linear Ion Trap mass spectrometer (MS), operating in a multiple reaction monitoring positive ionization mode as described previously with moderate modifications (25). Briefly, 50 μL of a solution (1 μM) of internal sphingolipid standards (including -sphingosine, -sphinganine, -sphingosine-1-phosphate, and -ceramide) was added to each cell pellet sample. Lipids of each sample were extracted twice with 2 mL of the ethyl acetate/isopropyl alcohol/water (60:28:12; v:v) solvent system. Supernatants were transferred to glass tubes (Kimble Chase) and evaporated under air (10 PSI) at 40° C. After reconstitution in methanol (4 mL), 1 ml of each sample was separated for the determination of lipid phosphate. Remaining sample (3 mL) was dried and used for sphingolipid quantification. For ESI/MS/MS, the dried lipid sample was dissolved in mobile phase A. Samples were injected (10 μL) and separated on a Spectra C8SR, 150×3.0 mm, 3-μm particle size column using gradient-elution (mobile phase A/B, prepared as previously described).
Data acquisition, peak integration and analyte quantitation were performed using ABI/SCIEX Analyst 1.4.2 Software. Sphingolipid data were normalized to lipid phosphate as previously described (26). Briefly, samples were dried under air (10 PSI) and lipids were extracted using the method of Bligh and Dyer (27). Of importance for phosphate assay, only Kimble Chase disposable borosilicate tubes were used for minimal sample contamination. Organic phase was transferred to glass tubes and a known volume was separated to a new tube and dried at 80° C. Phosphate standards and dried samples were then heated with ashing buffer (water:10 N:70% [40:9:1]) at 160° C. overnight. Samples were then incubated with ammonium molybdate and ascorbic acid as previously described, and absorbance ([…]) was read using a SpectraMax.
CCRF-CEM cells were treated with drug/fatty acid vehicles (control), GT-11 (0.5 μM) alone, sphinganine (4 μM) alone or sphinganine (4 μM) plus GT-11 (0.5 μM) for six hours and subsequently prepared for sphingolipid analysis.
CCRF-CEM cells were treated with GT-11 (0.5 μM) alone, sphinganine (1 μM) alone or sphinganine (1 μM) plus GT-11 (0.5 μM) for six hours and prepared for quantitative analysis. DHCers were normalized to control and plotted as fold change (bar, z-axis). * indicates significance, with P<0.05. […] CCRF-CEM cells were treated with sphinganine (1 μM) plus GT-11 (0.5 μM) with and without specific solubilized fatty acids (carbon chain length (CX) and saturation (:X), Ex: C20:1=fatty acid with 20 carbons and one desaturation) for six hours and prepared for quantitative sphingolipid analysis. Dihydroceramides were normalized to control cells that received sphinganine plus GT-11 with no fatty acid and plotted as fold change (bar, z-axis). * indicates significance, with P<0.05.

The mark [2] stands for this setting: fatty acid 5 μM in addition to sphinganine 1 μM plus GT-11 0.5 μM, six hours, P<0.001.
[3] abbreviates: fatty acid in addition to sphinganine, no GT-11, P<0.001.

On to `CCCCCCCCCCCCCCCCCCCCCC(=O)O` [C22:0-fatty acid], for which the “effect of fatty acid co-treatment on cytotoxicity of sphinganine with GT-11” value in the data set with MOLT-4 ALL cells is “increased”. Moreover, in data set [1] (setting [2]), the “increase in C22:0-DHCer over sphinganine plus GT-11 alone” value turned out to be 32 fold and the “increase in C24:0-DHCer over sphinganine plus GT-11 alone” value was found to be 19 fold. Also, in data set [1], the “increase in corresponding dihydroceramide over sphinganine plus GT-11 alone” value is given as “significant increases”. In addition, in data set [1] (setting [3]), the “increase in C22:0-Cer over sphinganine alone” value is on record as 13 fold and the “increase in C24:0-Cer over sphinganine alone” value is 4.6 fold.

On to `CCCCCCCC/C=C\CCCCCCCCCCCC(=O)O` [C22:1-fatty acid], for which the “effect of fatty acid co-treatment on cytotoxicity of sphinganine with GT-11” value with MOLT-4 ALL cells is recorded as “not”. Moreover, in data set [1], the “increase in corresponding dihydroceramide over sphinganine plus GT-11 alone” value is on record as “significant increases”.
